{
  "source": "paper PMC9138505",
  "about": "“Small Molecule 20S Proteasome Enhancer Regulates MYC Protein Stability and Exhibits Antitumor Activity in Multiple Myeloma” (Biomedicines, 2022)",
  "tested_on": "RPMI-8226 cells",
  "test": "Gene expression profiling, NanoString nCounter PanCancer Pathways Panel, ROSALIND analysis",
  "type": "cell-based, human",
  "conditions": "RPMI-8226, TCH-165 samples 1-3",
  "procedure": "RPMI-8226 cells were treated with vehicle or TCH-165 (10 μM) for 4 h. Total RNA was obtained using the mirVana miRNA Isolation Kit, with phenol (Thermofisher Scientific; AM1560; Waltham, MA, USA). Total RNA was quantified by Qubit (Thermofisher Scientific; Q32855; Waltham, MA, USA). and gene expression was evaluated against the nCounter® PanCancer Pathways Panel^TM according to the standard NanoString protocol.\nData were analyzed by ROSALIND® [36] with a hyperscale architecture developed by ROSALIND, Inc. (San Diego, CA, USA). Normalization, fold changes and p-values were calculated using criteria provided by NanoString. ROSALIND follows the nCounter® Advanced Analysis protocol of dividing counts within a lane by the geometric mean of the normalizer probes from the same lane. Housekeeping probes to be used for normalization are selected based on the geNorm algorithm, as implemented in the NormqPCR R library. Fold changes and p-values are calculated using the fast method as described in the nCounter Advanced Analysis 2.0 User Manual. The p-value adjustment is performed using the Benjamini–Hochberg method of estimating false discovery rates (FDR). Clustering of genes for the final heatmap of differentially expressed genes was done using the PAM (Partitioning Around Medoids) method using the fpc R library. Hypergeometric distribution was used to analyze the enrichment of pathways, gene ontology, domain structure and other ontologies. The topGO R library was used to determine local similarities and dependencies between GO terms in order to perform Elim pruning correction. Several database sources were referenced for enrichment analysis, including Interpro [40], NCBI [41], MSigDB [42, 43], REACTOME [44], WikiPathways. Enrichment was calculated relative to a set of background genes relevant to the experiment.",
  "note": "Several values for one entry are separate records, joined by “and”; a condition that tells them apart may be missing. Equal entries are not always repeated.",
  "data": [
    {"smiles": "CCOC(=O)[C@]1(c2ccccc2)N=C(c2ccc(OC)cc2)N(Cc2ccccc2)[C@@H]1c1ccc(NCc2ccccc2)cc1", "note": "[TCH-165]", "values": [
      {"measurement": "HRAS normalized gene expression", "result": "7.087 and 7.184 and 7.0682"},
      {"measurement": "HSP90B1 normalized gene expression", "result": "11.9809 and 12.0196 and 12.0083"},
      {"measurement": "HSPA1A normalized gene expression", "result": "6.793 and 6.667 and 6.528"},
      {"measurement": "HSPA2 normalized gene expression", "result": "5.259 and 4.962 and 5.39"},
      {"measurement": "HSPA6 normalized gene expression", "result": "8.169 and 8.132 and 8.184"},
      {"measurement": "HSPB1 normalized gene expression", "result": "10.6744 and 10.4282 and 10.4272"},
      {"measurement": "IBSP normalized gene expression", "result": "4.101 and 4.427 and 3.5707"},
      {"measurement": "ID1 normalized gene expression", "result": "7.234 and 7.077 and 7.39"},
      {"measurement": "ID2 normalized gene expression", "result": "8.252 and 8.085 and 8.156"},
      {"measurement": "ID4 normalized gene expression", "result": "5.308 and 4.962 and 4.5707"},
      {"measurement": "IDH1 normalized gene expression", "result": "8.037 and 7.944 and 8.087"},
      {"measurement": "IDH2 normalized gene expression", "result": "10.7214 and 10.6097 and 10.5399"},
      {"measurement": "IFNA2 normalized gene expression", "result": "4.793 and 5.029 and 4.876"},
      {"measurement": "IFNA7 normalized gene expression", "result": "4.208 and 3.891 and 3.653"},
      {"measurement": "IFNA17 normalized gene expression", "result": "5.445 and 5.817 and 5.712"},
      {"measurement": "IFNG normalized gene expression", "result": "4.723 and 3.739 and 3.731"},
      {"measurement": "IGF1R normalized gene expression", "result": "9.24 and 9.089 and 9.141"},
      {"measurement": "IGF1 normalized gene expression", "result": "5.686 and 5.427 and 5.0682"},
      {"measurement": "IGFBP3 normalized gene expression", "result": "11.5972 and 11.5942 and 11.578"},
      {"measurement": "IKBKB normalized gene expression", "result": "7.271 and 7.249 and 6.85"},
      {"measurement": "IKBKG normalized gene expression", "result": "8.189 and 8.037 and 8.156"},
      {"measurement": "IL1A normalized gene expression", "result": "4.208 and 4.154 and 4.0682"},
      {"measurement": "IL1B normalized gene expression", "result": "5.044 and 4.427 and 4.805"},
      {"measurement": "IL1R1 normalized gene expression", "result": "4.723 and 4.27 and 4.1271"},
      {"measurement": "IL1RAP normalized gene expression", "result": "6.044 and 5.927 and 6.0682"},
      {"measurement": "IL2RA normalized gene expression", "result": "4.571 and 4.27 and 4.291"},
      {"measurement": "IL2RB normalized gene expression", "result": "4.101 and 3.891 and 4.437"},
      {"measurement": "IL3RA normalized gene expression", "result": "6.378 and 6.614 and 6.197"},
      {"measurement": "IL3 normalized gene expression", "result": "5.61 and 4.996 and 5.211"},
      {"measurement": "IL5RA normalized gene expression", "result": "6.182 and 6.2133 and 6.211"},
      {"measurement": "IL6R normalized gene expression", "result": "6.156 and 6.045 and 5.926"},
      {"measurement": "IL6 normalized gene expression", "result": "4.308 and 3.476 and 3.0682"},
      {"measurement": "IL7R normalized gene expression", "result": "4.571 and 4.569 and 4.528"},
      {"measurement": "IL7 normalized gene expression", "result": "4.101 and 4.739 and 4.805"},
      {"measurement": "IL10 normalized gene expression", "result": "5.892 and 6.27 and 6.238"},
      {"measurement": "IL11RA normalized gene expression", "result": "4.649 and 4.476 and 3.291"},
      {"measurement": "IL11 normalized gene expression", "result": "4.208 and 4.324 and 4.341"},
      {"measurement": "IL12A normalized gene expression", "result": "2.986 and 2.739 and 2.943"},
      {"measurement": "IL12B normalized gene expression", "result": "4.86 and 4.657 and 4.613"},
      {"measurement": "IL12RB2 normalized gene expression", "result": "4.401 and 3.476 and 3.39"},
      {"measurement": "IL13RA2 normalized gene expression", "result": "3.86 and 3.962 and 3.39"},
      {"measurement": "IL13 normalized gene expression", "result": "3.986 and 4.699 and 4.653"},
      {"measurement": "IL15 normalized gene expression", "result": "3.986 and 3.962 and 4.0682"},
      {"measurement": "IL19 normalized gene expression", "result": "5.044 and 4.855 and 5.0068"},
      {"measurement": "IL20RA normalized gene expression", "result": "4.101 and 3.739 and 4.0682"},
      {"measurement": "IL20RB normalized gene expression", "result": "5.892 and 5.836 and 5.613"},
      {"measurement": "IL23A normalized gene expression", "result": "6.355 and 5.979 and 6.038"},
      {"measurement": "IL24 normalized gene expression", "result": "4.208 and 5.427 and 4.876"},
      {"measurement": "INHBA normalized gene expression", "result": "4.793 and 4.569 and 4.0682"},
      {"measurement": "INHBB normalized gene expression", "result": "5.53 and 5.927 and 5.75"},
      {"measurement": "IRAK2 normalized gene expression", "result": "5.892 and 5.524 and 5.893"},
      {"measurement": "IRAK3 normalized gene expression", "result": "5.156 and 5.029 and 4.805"},
      {"measurement": "IRS1 normalized gene expression", "result": "5.308 and 4.996 and 4.805"},
      {"measurement": "ITGA2 normalized gene expression", "result": "3.723 and 3.657 and 3.731"},
      {"measurement": "ITGA3 normalized gene expression", "result": "7.115 and 6.979 and 6.693"},
      {"measurement": "ITGA6 normalized gene expression", "result": "5.259 and 5.242 and 4.653"},
      {"measurement": "ITGA7 normalized gene expression", "result": "4.208 and 4.154 and 4.943"},
      {"measurement": "ITGA8 normalized gene expression", "result": "5.488 and 4.891 and 5.098"},
      {"measurement": "ITGA9 normalized gene expression", "result": "4.86 and 4.996 and 4.437"},
      {"measurement": "ITGB3 normalized gene expression", "result": "3.401 and 2.739 and 3.731"},
      {"measurement": "ITGB4 normalized gene expression", "result": "5.308 and 5.184 and 5.0682"},
      {"measurement": "ITGB6 normalized gene expression", "result": "5.571 and 5.2133 and 5.291"},
      {"measurement": "ITGB7 normalized gene expression", "result": "14.1153 and 14.105 and 14.0545"},
      {"measurement": "ITGB8 normalized gene expression", "result": "6.445 and 6.452 and 6.602"},
      {"measurement": "JAG1 normalized gene expression", "result": "8.08 and 7.864 and 7.85"},
      {"measurement": "JAG2 normalized gene expression", "result": "7.169 and 7.476 and 7.455"},
      {"measurement": "JAK1 normalized gene expression", "result": "9.467 and 9.41 and 9.414"},
      {"measurement": "JAK2 normalized gene expression", "result": "6.331 and 6.311 and 6.4021"},
      {"measurement": "JUN normalized gene expression", "result": "8.667 and 8.646 and 8.78"},
      {"measurement": "KAT2B normalized gene expression", "result": "7.955 and 8.18 and 8.102"},
      {"measurement": "KDM5C normalized gene expression", "result": "9.094 and 8.985 and 8.924"},
      {"measurement": "KDM6A normalized gene expression", "result": "4.401 and 4.029 and 3.943"},
      {"measurement": "KIT normalized gene expression", "result": "5.101 and 4.739 and 4.528"},
      {"measurement": "KITLG normalized gene expression", "result": "4.649 and 4.739 and 4.5707"},
      {"measurement": "KLF4 normalized gene expression", "result": "4.308 and 4.996 and 4.769"},
      {"measurement": "KMT2D normalized gene expression", "result": "8.115 and 8.314 and 8.228"},
      {"measurement": "KRAS normalized gene expression", "result": "11.0766 and 10.9767 and 10.9365"},
      {"measurement": "LAMA3 normalized gene expression", "result": "5.308 and 5.324 and 5.1271"},
      {"measurement": "LAMA5 normalized gene expression", "result": "5.986 and 5.739 and 5.693"},
      {"measurement": "LAMB3 normalized gene expression", "result": "6.234 and 6.169 and 6.1271"},
      {"measurement": "LAMB4 normalized gene expression", "result": "4.401 and 4.029 and 3.731"},
      {"measurement": "LAMC2 normalized gene expression", "result": "3.723 and 3.27 and 3.731"},
      {"measurement": "LAMC3 normalized gene expression", "result": "5.649 and 4.996 and 4.693"},
      {"measurement": "LAT normalized gene expression", "result": "5.723 and 5.927 and 5.366"},
      {"measurement": "LEF1 normalized gene expression", "result": "3.86 and 2.891 and 2.291"},
      {"measurement": "LEFTY1 normalized gene expression", "result": "5.723 and 4.855 and 5.0068"},
      {"measurement": "LEFTY2 normalized gene expression", "result": "6.571 and 6.657 and 6.814"},
      {"measurement": "LEP normalized gene expression", "result": "5.259 and 4.855 and 4.291"},
      {"measurement": "LEPR normalized gene expression", "result": "6.401 and 5.817 and 6.378"},
      {"measurement": "LFNG normalized gene expression", "result": "5.758 and 5.2133 and 4.805"},
      {"measurement": "LIF normalized gene expression", "result": "5.259 and 5.029 and 5.156"}
    ]}
  ]
}
